Laboratory results taken from PubChem BioAssay AID192 (DTP/NCI, 2004).
Where “and” joins values, the source holds several entries; their conditions need not be identical. Equal entries are not always repeated. Toxic doses and inconclusive results are not listed.

System: BDF1 mice, B16 melanoma ip, median survival T/C
Test: NCI In Vivo Anticancer Drug Screen. Data for tumor model B16 Melanoma (intraperitoneal) in B6D2F1 (BDF1) mice
Settings: endpoint: median survival time, higher = longer survival
Summary of the method: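 Survival or tumor size is measured after treatment of tumor-bearing mice and normalised to the vehicle-treated control group.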

[1] = dose: 0.5 mg/kg/injection, schedule: Q01DX009 (ip), vehicle: saline
[2] = dose: 1.0 mg/kg/injection, schedule: Q01DX009 (ip), vehicle: saline
[3] = dose: 100.0 mg/kg/injection, schedule: Q01DX009 (ip), vehicle: Klucel (hydroxypropylcellulose) (HPC)
[4] = dose: 200.0 mg/kg/injection, schedule: Q01DX009 (ip), vehicle: Klucel (hydroxypropylcellulose) (HPC)

O=C1C(N2CCN(CCO)CC2)=C(N2CC2)C(=O)C(N2CCN(CCO)CC2)=C1N1CC1
T/C (dose: 0.25 mg/kg/injection, schedule: Q01DX009 (ip), vehicle: saline): 122 % of control
T/C [1]: 122 % of control
T/C [2]: 109 % of control

COc1c(O)cc2c(c1OC)-c1ccc(OC)c(=O)cc1[C@@H](NC(C)=O)CC2
T/C (dose: 0.62 mg/kg/injection, schedule: Q01DX009 (ip), vehicle: saline with Tween-80): 123 % of control

CCCC(C#N)(c1ccccc1)c1ccccc1
T/C (dose: 50.0 mg/kg/injection, schedule: Q01DX009 (ip), vehicle: Klucel (hydroxypropylcellulose) (HPC)): 90 % of control
T/C [3]: 90 % of control
T/C [4]: 93 % of control

COc1ccc(C(=O)/C=C/c2ccc3c(c2)OCO3)cc1OC
T/C [3]: 96 % of control
T/C [4]: 93 % of control

Oc1ccc(/C=N/Nc2nnc(N/N=C/c3ccc(O)cc3O)c3ccccc23)c(O)c1
T/C (dose: 3.13 mg/kg/injection, schedule: Q01DX009 (ip), vehicle: suspension in saline): 101 % of control
T/C (dose: 6.25 mg/kg/injection, schedule: Q01DX009 (ip), vehicle: suspension in saline): 98 % of control
T/C (dose: 12.5 mg/kg/injection, schedule: Q01DX009 (ip), vehicle: suspension in saline): 89 % of control
T/C (dose: 25.0 mg/kg/injection, schedule: Q01DX009 (ip), vehicle: suspension in saline): 90 % of control

C=C1CCN(c2cccc(Cl)c2)C1=O
T/C (dose: 1.0 mg/kg/injection, schedule: Q01DX009 (ip), vehicle: saline + alcohol): 107 % of control
T/C (dose: 2.0 mg/kg/injection, schedule: Q01DX009 (ip), vehicle: saline + alcohol): 117 % of control
T/C (dose: 4.0 mg/kg/injection, schedule: Q01DX009 (ip), vehicle: saline + alcohol): 101 % of control and 115 % of control
T/C (dose: 8.0 mg/kg/injection, schedule: Q01DX009 (ip), vehicle: saline + alcohol): 101 % of control
T/C (dose: 16.0 mg/kg/injection, schedule: Q01DX009 (ip), vehicle: saline + alcohol): 95 % of control
T/C (dose: 32.0 mg/kg/injection, schedule: Q01DX009 (ip), vehicle: saline + alcohol): 96 % of control
T/C (dose: 64.0 mg/kg/injection, schedule: Q01DX009 (ip), vehicle: saline + alcohol): 100 % of control

Cc1cc(C)c(NC(=O)N(CCCl)N=O)cc1C
T/C (dose: 23.0 mg/kg/injection, schedule: Q01DX009 (ip), vehicle: saline): 197 % of control
T/C (dose: 45.0 mg/kg/injection, schedule: Q01DX009 (ip), vehicle: saline): 229 % of control

COc1cc2c(c(OC)c1OC)-c1ccc(OC)c(=O)cc1[C@@H](NC(C)=O)CC2
T/C (dose: 0.12 mg/kg/injection, schedule: Q01DX009 (ip), vehicle: saline): 123 % of control
T/C (dose: 0.13 mg/kg/injection, schedule: Q01DX009 (ip), vehicle: saline): 120 % of control
T/C (dose: 0.25 mg/kg/injection, schedule: Q01DX009 (ip), vehicle: water): 179 % of control
T/C (dose: 0.4 mg/kg/injection, schedule: Q01DX009 (ip), vehicle: saline): 152 % of control
T/C [1]: 113 % of control
T/C (dose: 0.5 mg/kg/injection, schedule: Q01DX009 (ip), vehicle: water): 150 % of control and 154 % of control
T/C (dose: 1.0 mg/kg/injection, schedule: Q01DX009 (ip), vehicle: water): 166 % of control
T/C (dose: 63.0 micrograms/kg/injection, schedule: Q01DX009 (ip), vehicle: saline): 121 % of control
T/C (dose: 250.0 micrograms/kg/injection, schedule: Q01DX009 (ip), vehicle: saline): 150 % of control
T/C (dose: 500.0 micrograms/kg/injection, schedule: Q01DX009 (ip), vehicle: saline): 151 % of control
T/C (dose: 1000.0 micrograms/kg/injection, schedule: Q01DX009 (ip), vehicle: saline): 155 % of control

CC[P+](c1ccccc1)(c1ccccc1)c1ccccc1
T/C (dose: 1.25 mg/kg/injection, schedule: Q04DX003 (ip), vehicle: saline): 97 % of control
T/C (dose: 2.5 mg/kg/injection, schedule: Q04DX003 (ip), vehicle: saline): 93 % of control
T/C (dose: 5.0 mg/kg/injection, schedule: Q04DX003 (ip), vehicle: saline): 95 % of control

C/C=C(\C)C(=O)OC1C(C)C2(O)C(C=C(CO)CC3(O)C(=O)C(C)=CC32)C2C(C)(C)C12OC(=O)CCCCCCCCC (stereo not drawn)
T/C (dose: 0.13 mg/kg/injection, schedule: Q01DX009 (ip), vehicle: saline + alcohol): 102 % of control and 104 % of control
T/C (dose: 0.25 mg/kg/injection, schedule: Q01DX009 (ip), vehicle: saline + alcohol): 92 % of control and 94 % of control
T/C (dose: 0.5 mg/kg/injection, schedule: Q01DX009 (ip), vehicle: saline + alcohol): 92 % of control

CC(C)C(=O)[O][Sn]([CH3])([CH3])[CH3]
T/C (dose: 0.19 mg/kg/injection, schedule: Q01DX009 (ip), vehicle: saline): 107 % of control
T/C (dose: 0.38 mg/kg/injection, schedule: Q01DX009 (ip), vehicle: saline): 105 % of control
T/C (dose: 0.75 mg/kg/injection, schedule: Q01DX009 (ip), vehicle: saline): 100 % of control

CC[C@@]1(O)C[C@H](OC2CC(N(C)C)C(OC3CC(O)C(OC4CCC(=O)C(C)O4)C(C)O3)C(C)O2)c2c(cc3c(c2O)C(=O)c2c(O)cccc2C3=O)[C@H]1C(=O)OC (stereo partly drawn)
T/C (dose: 0.75 mg/kg/injection, schedule: Q01DX001 (ip), vehicle: water): 100 % of control and 106 % of control and 112 % of control
T/C (dose: 0.75 mg/kg/injection, schedule: Q01DX009 (ip), vehicle: Klucel (hydroxypropylcellulose) (HPC)): 123 % of control
T/C (dose: 1.5 mg/kg/injection, schedule: Q01DX001 (ip), vehicle: water): 105 % of control and 112 % of control and 120 % of control
T/C (dose: 1.56 mg/kg/injection, schedule: Q01DX001 (ip), vehicle: water): 103 % of control
T/C (dose: 2.16 mg/kg/injection, schedule: Q01DX001 (ip), vehicle: water): 95 % of control and 97 % of control
T/C (dose: 3.0 mg/kg/injection, schedule: Q01DX001 (ip), vehicle: water): 110 % of control and 124 % of control
T/C (dose: 3.0 mg/kg/injection, schedule: Q01DX009 (ip), vehicle: saline): 160 % of control
T/C (dose: 3.13 mg/kg/injection, schedule: Q01DX001 (ip), vehicle: water): 110 % of control
T/C (dose: 3.6 mg/kg/injection, schedule: Q01DX001 (ip), vehicle: water): 91 % of control and 101 % of control
T/C (dose: 6.25 mg/kg/injection, schedule: Q01DX001 (ip), vehicle: water): 124 % of control
T/C (dose: 8.0 mg/kg/injection, schedule: Q01DX001 (ip), vehicle: water): 106 % of control and 120 % of control
T/C (dose: 10.0 mg/kg/injection, schedule: Q01DX001 (ip), vehicle: water): 100 % of control
T/C (dose: 12.0 mg/kg/injection, schedule: Q01DX001 (ip), vehicle: water): 110 % of control and 124 % of control
T/C (dose: 12.5 mg/kg/injection, schedule: Q01DX001 (ip), vehicle: water): 114 % of control and 121 % of control
T/C (dose: 25.0 mg/kg/injection, schedule: Q01DX001 (ip), vehicle: water): 98 % of control

CO[C@H](C)[C@@](O)(C(=O)OCC1=CCN2CCC[C@@H]12)C(C)C
T/C (dose: 10.0 mg/kg/injection, schedule: Q01DX009 (ip), vehicle: saline): 114 % of control
T/C (dose: 20.0 mg/kg/injection, schedule: Q01DX009 (ip), vehicle: saline): 104 % of control
T/C (dose: 40.0 mg/kg/injection, schedule: Q01DX009 (ip), vehicle: saline): 100 % of control
T/C (dose: 80.0 mg/kg/injection, schedule: Q01DX009 (ip), vehicle: saline): 95 % of control

COc1ccccc1NC(=O)Nc1cccc(C(C)=O)c1
T/C (dose: 100.0 mg/kg/injection, schedule: Q01DX009 (ip), vehicle: saline with Tween-80): 94 % of control
T/C (dose: 200.0 mg/kg/injection, schedule: Q01DX009 (ip), vehicle: saline with Tween-80): 92 % of control

CC(Br)C(=O)NC(C)C(=O)O (stereo not drawn)
T/C (dose: 12.5 mg/kg/injection, schedule: Q01DX009 (ip), vehicle: saline with Tween-80): 93 % of control
T/C (dose: 25.0 mg/kg/injection, schedule: Q01DX009 (ip), vehicle: saline with Tween-80): 89 % of control
T/C (dose: 50.0 mg/kg/injection, schedule: Q01DX009 (ip), vehicle: saline with Tween-80): 90 % of control

CC(=O)Nc1cc2c(cc1[N+](=O)[O-])-c1ccccc1C2O (stereo not drawn)
T/C (dose: 50.0 mg/kg/injection, schedule: Q04DX003 (ip), vehicle: saline with Tween-80): 105 % of control
T/C (dose: 100.0 mg/kg/injection, schedule: Q04DX003 (ip), vehicle: saline with Tween-80): 110 % of control
T/C (dose: 200.0 mg/kg/injection, schedule: Q04DX003 (ip), vehicle: saline with Tween-80): 105 % of control

CC(Cc1ccccc1)NC(=O)/C=C/C(=O)O (stereo not drawn)
T/C [3]: 95 % of control
T/C [4]: 91 % of control
T/C (dose: 400.0 mg/kg/injection, schedule: Q01DX009 (ip), vehicle: Klucel (hydroxypropylcellulose) (HPC)): 89 % of control

N/C(=N\O)c1cn(C2OC(CO)C(O)C2O)c2ncnc(N)c12 (stereo not drawn)
T/C [2]: 115 % of control
T/C (dose: 2.0 mg/kg/injection, schedule: Q01DX009 (ip), vehicle: saline): 117 % of control
T/C (dose: 4.0 mg/kg/injection, schedule: Q01DX009 (ip), vehicle: saline): 121 % of control

CC(Cc1ccc2c(c1)OCO2)C(C)Cc1ccc2c(c1)OCO2 (stereo not drawn)
T/C (dose: 100.0 mg/kg/injection, schedule: Q01DX009 (ip), vehicle: other): 94 % of control
T/C (dose: 200.0 mg/kg/injection, schedule: Q01DX009 (ip), vehicle: other): 89 % of control
T/C (dose: 400.0 mg/kg/injection, schedule: Q01DX009 (ip), vehicle: other): 89 % of control
